Experiments:
[1] = Photostationary state (PSS) determination by HPLC-MS in aqueous assay buffer; type: physicochemical; settings: for PSS365 (% cis) / PSS525 (%trans): 21 °C, HPLC-MS, 60 μM, aqueous buffer 0.6% DMSO; for PSS365 (% cis): 3 min illumination 365 nm; for PSS525 (%trans): 3 min illumination 525 nm
Procedure: (§1) The UV–vis absorbance spectra of all molecules were measured in the dark and after the application of light of different wavelengths ranging from 365 to 770 nm (Figure A and Figures S1–S3). […] Consequently, violet/UV light below 405 nm efficiently promoted photoisomerization, which produced a dramatic decrease in the π-π* band and a significant increase in the n-π* band at around 445 nm (Table ). […] The proportion of molecules at the PSS in trans isomer upon constant illumination with light at 525 nm and cis at 365 nm was in general above 50%, reaching a remarkable >99% for compound 11d (Table and Figures S4 and S5). […] The greater stability of the trans isomer was consistent with previous quantum mechanical and molecular mechanics predictions. Measuring the photoisomerization properties of compound PhotoVDRM allowed us to determine the photoisomerization quantum yields of the compound by solving a differential equation for photoisomerization. We used MATLAB to perform regression and arrive at the following photoisomerization quantum yields: ϕ365 nm (trans) = 0.0427, ϕ365 nm (cis) = 0.0501, ϕ470 nm (trans) = 0.1857, and ϕ470 nm (cis) = 0.2281 (Figure S9). Compound PhotoVDRM was also evaluated in aqueous buffer used for pharmacological experiments (0.5% DMSO) showing a thermal relaxation of 3 h, almost 7 times faster than in pure DMSO (Figure B). […] A deeper photocharacterization of PhotoVDRM allowed us to measure the kinetics of photoconversion upon constant illumination with two wavelengths and three light intensities (Figure D and Figure S10). […] Indeed, with LED devices producing light at intensities as low as 0.05 mW/mm^2 we were able to transform trans to cis in around 15.5 s. This time was reduced to 6 and 2 s when the light intensity was increased to 0.15 and 0.75 mW/mm^2. […] Therefore, we proceeded to test the ability of the chemical library to activate the VDR under different light conditions.
Photostationary state (PSS) determination. In a transparent vial, solutions of the compounds were prepared at a concentration of 60 µM from a 10 mM stock in DMSO, using the assay buffer of pharmacological experiments for dilution. Prior to illumination, a volume of 500 µL was transferred to an amber vial for the "dark" sample. The same procedure was repeated after exposing the transparent vial containing the 60 µM solutions to the following light conditions:
365nm for 3 minutes and 525nm for 3 minutes. […]
difference on isomeric proportions. For each sample, 20 µL was analyzed by HPLC-MS, and the isomer ratios were determined at the isosbestic point.
Isosbestic point determination. The solvent percentage for the elution of each isomer were calculated based on their retention times from HPLC analysis. Subsequently, 50 µM solutions were prepared from the 10 mM DMSO stock solution of each compound using the previously determined HPLC solvent mixture. The UV spectrum for each solution was recorded after illumination at 365 nm (30 seconds), at 400 nm (30 seconds), and at 525 nm (30 seconds). The spectra were overlaid to identify the isosbestic point of maximum intensity.
HPLC conditions. Analytical HPLC was performed on a Thermo Ultimate 3000SD (Thermo Scientific Dionex) coupled to a PDA detector and Mass Spectrometer LTQ XL ESI-ion trap (Thermo Scientific). Cromatographic separations were performed using a ZORBAX Eclipse Plus C18 (4.6 x 150mm; 3.5µm) column. The mobile phase consisted of an isocratic mixture of solvent A (water with 0.05% of formic acid) and solvent B (acetonitrile with 0.05% formic acid) at a 3:7 ratio for compounds 10a-d and a 2:3 ratio for compounds 11a-d and 12a-d. […]

[2] = UV-Vis absorption spectra and thermal relaxation of the cis isomers in DMSO; type: physicochemical; settings: 60 μM in 100% DMSO, 37 °C; for λn−π* (cis): after illumination; for λπ–π* (trans): dark
Procedure: as §1
2. Photochemical characterization. […]
(200 µL per well). The absorption spectra were recorded from 300 to 600 nm with 2 nm fixed intervals using a Tecan Spark 20M Multimode microplate reader. Initial measurements were performed in the dark, followed by spectra acquired immediately after each 3 min period of light irradiation at different wavelengths using 96-well LED array plates (LEDA Teleopto). Theoretical absorbance spectra corresponding to the pure cis isomer (100%) of each compound were calculated in order to obtain the theoretical percentage of cis isomer at each wavelength, according to the method described by Ernst Fischer (1967). Thermal relaxation kinetics of the experimental cis isomers were assessed in quartz cuvettes (10 mm optical path) containing freshly prepared 50 […]
Dark state absorbance at 365 nm was recorded at 37
ºC using a ThermoFisher Evolution 350 UV-Vis spectrophotometer. Samples were then irradiated for 3 minutes at 365 nm with a CoolLED pE-4000 light sourceto induce trans → cis photoisomerization.. Absorbance at 365 nm was subsequently monitored over 48 h: every 15 min during the first 24 h, and every 60 min during the following 24 h. Relaxation half-lives were determined by fitting the absorbance-time data to a […] exponential model using GraphPad Prism v10.4.1. […]

Row | PSS365 (% cis) [1] [%] | PSS525 (%trans) [1] [%] | t 1/2 (thermal relaxation of cis) [2] [h] | λn−π* (cis) [2] [nm] | λπ–π* (trans) [2] [nm] | Compound | proportion of cis at PSS 460 nm ([1]; 460 nm, assay buffer (Figure S4D)) [%]
1 | 94 | 74 | 9.1 | 440 | 366 | Cc1cc(/N=N/c2cccc(-c3ccc(C(=O)O)cc3)c2)ccc1OCC(O)C(C)(C)C (centres unmarked) [Compound 11a] | –
2 | 96 | 84 | 25.4 | 444 | 364 | Cc1cc(/N=N/c2cccc(-c3ccc(C(=O)O)cc3C)c2)ccc1OCC(O)C(C)(C)C (centres unmarked) [Compound 11c] | –
3 | >99 | 61 | 17.7 | 444 | 362 | Cc1cc(OCC(O)C(C)(C)C)ccc1/N=N/c1cccc(-c2ccc(C(=O)O)cc2C)c1 (centres unmarked) [Compound 11d] | –
4 | 80 | 87 | 9.1 | 444 | 364 | Cc1cc(/N=N/c2cccc(-c3ccc(CO)cc3)c2)ccc1OCC(O)C(C)(C)C (centres unmarked) [Compound 12a] | –
5 | 84 | 84 | 6.8 | 444 | 362 | Cc1cc(OCC(O)C(C)(C)C)ccc1/N=N/c1cccc(-c2ccc(CO)cc2)c1 (centres unmarked) [Compound 12b] | –
6 | 88 | 82 | 8.2 | 446 | 362 | Cc1cc(OCC(O)C(C)(C)C)ccc1/N=N/c1cccc(-c2ccc(CO)cc2C)c1 (centres unmarked) [Compound 12d] | –

The remaining lines, values behind:

Row | Compound | PSS365 (% cis) [1] [%] | PSS525 (%trans) [1] [%] | t 1/2 (thermal relaxation of cis) [2] [h] | λn−π* (cis) [2] [nm] | λπ–π* (trans) [2] [nm] | proportion of cis at PSS 460 nm ([1]; 460 nm, assay buffer (Figure S4D)) [%]
7 | COC(=O)c1ccc(-c2cccc(/N=N/c3ccc(OCC(O)C(C)(C)C)c(C)c3)c2)cc1 (centres unmarked) [Compound 10a] | 83 | 86 | 9.3 | 446 | 366 | –
8 | COC(=O)c1ccc(-c2cccc(/N=N/c3ccc(OCC(O)C(C)(C)C)cc3C)c2)cc1 (centres unmarked) [Compound 10b] | 78 | 73 | 7.6 | 440 | 360 | –
9 | COC(=O)c1ccc(-c2cccc(/N=N/c3ccc(OCC(O)C(C)(C)C)c(C)c3)c2)c(C)c1 (centres unmarked) [Compound 10c] | 73 | 83 | 12.5 | 444 | 366 | –
10 | COC(=O)c1ccc(-c2cccc(/N=N/c3ccc(OCC(O)C(C)(C)C)cc3C)c2)c(C)c1 (centres unmarked) [Compound 10d] | 88 | 81 | 8.2 | 438 | 360 | –
11 | Cc1cc(OCC(O)C(C)(C)C)ccc1N=Nc1cccc(-c2ccc(C(=O)O)cc2)c1 (centres unmarked) [Compound 11b] | 95 | 55 | 20.5 | 442 | 362 | 63
